The values that follow come from ChEMBL document CHEMBL3774313, “Natural product-based design, synthesis and biological evaluation of Albiziabioside A derivatives that selectively induce HCT116 cell death” (Eur J Med Chem, 2016).

Type in all cases: functional, cell-based
In one experiment the test system is MCF7. Description: Antiproliferative activity against human MCF7 cells assessed as cell viability after 72 hrs by MTT assay. The settings on record: MCF7, 72 h. For orientation: Formazan colour is commonly taken as a measure of viable cells.
A short description of experiment [1]: Antiproliferative activity against human HL60 cells assessed as cell viability after 72 hrs by MTT assay. The settings on record: HL-60, 72 h.
The test system of the next experiment is HepG2. Description: Antiproliferative activity against human HepG2 cells assessed as cell viability after 72 hrs by MTT assay. Particulars: HepG2, 72 h.
The subject of a further experiment is HeLa. The experiment can be described thus: Antiproliferative activity against human HeLa cells assessed as cell viability after 72 hrs by MTT assay.
Another experiment deals with A549. The experiment can be described thus: Antiproliferative activity against human A549 cells assessed as cell viability after 72 hrs by MTT assay. Particulars: A549, 72 h.
Experiment [2] can be described thus: Antiproliferative activity against human HCT116 cells assessed as cell viability after 72 hrs by MTT assay. Particulars: HCT-116, 72 h.

The IC50 is the point on the concentration scale where inhibition reaches its midpoint. On to `CC1(C)CC[C@]2(C(=O)O)CC[C@]3(C)C(=CC[C@@H]4[C@@]5(C)CC[C@H](O[C@@H]6O[C@H](CO[C@@H]7OC[C@H](O)[C@H](O)[C@H]7O)[C@@H](O)[C@H](O)[C@H]6NC(=O)/C=C/c6ccc(F)cc6)C(C)(C)[C@@H]5CC[C@]43C)[C@@H]2C1`, for which the 50% inhibitory concentration (IC50) with MCF7 is above 50 µM; in experiment [1], above 50 µM; with HepG2, above 50 µM; in the experiment with HeLa it was above 50 µM; with A549, above 50 µM; in experiment [2], 37.5 µM.

As to `Cc1cccc(/C=C/C(=O)N[C@H]2[C@H](O[C@H]3CC[C@]4(C)[C@H]5CC=C6[C@@H]7CC(C)(C)CC[C@]7(C(=O)O)CC[C@@]6(C)[C@]5(C)CC[C@H]4C3(C)C)O[C@H](CO[C@@H]3OC[C@H](O)[C@H](O)[C@H]3O)[C@@H](O)[C@@H]2O)c1`, the half-maximal inhibitory concentration (IC50) (in the experiment on MCF7; in experiment [1]; in the experiment with HepG2; in the experiment with HeLa; with A549; in experiment [2]) was above 50 µM throughout.

`O=c1[nH]cc(F)c(=O)[nH]1` [FLUOROURACIL]: the IC50 was 26.1 µM with MCF7; 27.4 µM in experiment [1]; 49 µM in the experiment on HepG2; 26.2 µM in the experiment on HeLa; above 50 µM in the experiment with A549; 38.3 µM in experiment [2].

For the compound `COc1cccc(/C=C/C(=O)N[C@H]2[C@H](O[C@H]3CC[C@]4(C)[C@H]5CC=C6[C@@H]7CC(C)(C)CC[C@]7(C(=O)O)CC[C@@]6(C)[C@]5(C)CC[C@H]4C3(C)C)O[C@H](CO[C@@H]3OC[C@H](O)[C@H](O)[C@H]3O)[C@@H](O)[C@@H]2O)c1OC`, the concentration for half-maximal inhibition (IC50) (with MCF7; in experiment [1]; in the experiment on HepG2; in the experiment on HeLa; in the experiment on A549; in experiment [2]) was above 50 µM in each case.

On to `Cc1ccc(/C=C/C(=O)N[C@H]2[C@H](O[C@H]3CC[C@]4(C)[C@H]5CC=C6[C@@H]7CC(C)(C)CC[C@]7(C(=O)O)CC[C@@]6(C)[C@]5(C)CC[C@H]4C3(C)C)O[C@H](CO[C@@H]3OC[C@H](O)[C@H](O)[C@H]3O)[C@@H](O)[C@@H]2O)cc1`, for which the half-maximal inhibitory concentration (IC50) was 38.1 µM in the experiment with MCF7; above 50 µM in experiment [1]; above 50 µM with HepG2; above 50 µM in the experiment on HeLa; above 50 µM in the experiment with A549; 16.3 µM in experiment [2].

As to `CC1(C)CC[C@]2(C(=O)O)CC[C@]3(C)C(=CC[C@@H]4[C@@]5(C)CC[C@H](O[C@@H]6O[C@H](CO[C@@H]7OC[C@H](O)[C@H](O)[C@H]7O)[C@@H](O)[C@H](O)[C@H]6NC(=O)/C=C/c6cccc(Br)c6)C(C)(C)[C@@H]5CC[C@]43C)[C@@H]2C1`, the IC50 with MCF7 is above 50 µM; in experiment [1], above 50 µM; with HepG2 it was above 50 µM; in the experiment on HeLa, above 50 µM; in the experiment with A549, above 50 µM; in experiment [2], 10.2 µM.

On to `CC1(C)CC[C@]2(C(=O)O)CC[C@]3(C)C(=CC[C@@H]4[C@@]5(C)CC[C@H](O[C@@H]6O[C@H](CO[C@@H]7OC[C@H](O)[C@H](O)[C@H]7O)[C@@H](O)[C@H](O)[C@H]6NC(=O)/C=C/c6ccc(C(C)(C)C)cc6)C(C)(C)[C@@H]5CC[C@]43C)[C@@H]2C1`, for which the IC50 was above 50 µM with MCF7; above 50 µM in experiment [1]; above 50 µM with HepG2; 39.2 µM with HeLa; above 50 µM with A549; 13.6 µM in experiment [2].

In the case of `CC1(C)CC[C@]2(C(=O)O)CC[C@]3(C)C(=CC[C@@H]4[C@@]5(C)CC[C@H](O[C@@H]6O[C@H](CO[C@@H]7OC[C@H](O)[C@H](O)[C@H]7O)[C@@H](O)[C@H](O)[C@H]6NC(=O)/C=C/c6cccc(F)c6)C(C)(C)[C@@H]5CC[C@]43C)[C@@H]2C1`, the IC50 is above 50 µM in the experiment with MCF7; above 50 µM in experiment [1]; above 50 µM in the experiment on HepG2; 48.4 µM in the experiment on HeLa; 32.8 µM in the experiment on A549; 8.5 µM in experiment [2].

`CC1(C)CC[C@]2(C(=O)O)CC[C@]3(C)C(=CC[C@@H]4[C@@]5(C)CC[C@H](O[C@@H]6O[C@H](CO[C@@H]7OC[C@H](O)[C@H](O)[C@H]7O)[C@@H](O)[C@H](O)[C@H]6NC(=O)/C=C/c6ccccc6)C(C)(C)[C@@H]5CC[C@]43C)[C@@H]2C1`: the IC50 in the experiment with MCF7 was 45.2 µM; in experiment [1] it was above 50 µM; with HepG2 it was above 50 µM; with HeLa, 40.2 µM; in the experiment on A549 it was above 50 µM; in experiment [2], 19.3 µM.

Regarding `CC1(C)CC[C@]2(C(=O)O)CC[C@]3(C)C(=CC[C@@H]4[C@@]5(C)CC[C@H](O[C@@H]6O[C@H](CO[C@@H]7OC[C@H](O)[C@H](O)[C@H]7O)[C@@H](O)[C@H](O)[C@H]6NC(=O)/C=C/c6ccc(Cl)cc6)C(C)(C)[C@@H]5CC[C@]43C)[C@@H]2C1`, the IC50 (in the experiment on MCF7; in experiment [1]; with HepG2; with HeLa; with A549; in experiment [2]) was above 50 µM in each case.

As to `CC1(C)CC[C@]2(C(=O)O)CC[C@]3(C)C(=CC[C@@H]4[C@@]5(C)CC[C@H](O[C@@H]6O[C@H](CO[C@@H]7OC[C@H](O)[C@H](O)[C@H]7O)[C@@H](O)[C@H](O)[C@H]6NC(=O)/C=C/c6cccc(Cl)c6)C(C)(C)[C@@H]5CC[C@]43C)[C@@H]2C1`, the 50% inhibitory concentration (IC50) in the experiment with MCF7 is above 50 µM; in experiment [1], above 50 µM; in the experiment on HepG2, above 50 µM; with HeLa, above 50 µM; in the experiment with A549, above 50 µM; in experiment [2] it was 11.9 µM.

Consider `CC1(C)CC[C@]2(C(=O)O)CC[C@]3(C)C(=CC[C@@H]4[C@@]5(C)CC[C@H](O[C@@H]6O[C@H](CO[C@@H]7OC[C@H](O)[C@H](O)[C@H]7O)[C@@H](O)[C@H](O)[C@H]6NC(=O)/C=C/c6ccc(Br)cc6)C(C)(C)[C@@H]5CC[C@]43C)[C@@H]2C1`, for which the IC50 with MCF7 was above 50 µM; in experiment [1], above 50 µM; with HepG2 it was above 50 µM; with HeLa, above 50 µM; with A549 it was above 50 µM; in experiment [2] it was 33.2 µM.

With `COc1ccccc1/C=C/C(=O)N[C@H]1[C@H](O[C@H]2CC[C@]3(C)[C@H]4CC=C5[C@@H]6CC(C)(C)CC[C@]6(C(=O)O)CC[C@@]5(C)[C@]4(C)CC[C@H]3C2(C)C)O[C@H](CO[C@@H]2OC[C@H](O)[C@H](O)[C@H]2O)[C@@H](O)[C@@H]1O`, the IC50 (with MCF7; in experiment [1]; in the experiment on HepG2; in the experiment on HeLa; in the experiment with A549; in experiment [2]) was above 50 µM in each case.

As to `COc1cc(/C=C/C(=O)N[C@H]2[C@H](O[C@H]3CC[C@]4(C)[C@H]5CC=C6[C@@H]7CC(C)(C)CC[C@]7(C(=O)O)CC[C@@]6(C)[C@]5(C)CC[C@H]4C3(C)C)O[C@H](CO[C@@H]3OC[C@H](O)[C@H](O)[C@H]3O)[C@@H](O)[C@@H]2O)cc(OC)c1`, the IC50 (in the experiment with MCF7; in experiment [1]; with HepG2; in the experiment with HeLa; in the experiment with A549; in experiment [2]) was above 50 µM each time.

As for `CC1(C)CC[C@]2(C(=O)O)CC[C@]3(C)C(=CC[C@@H]4[C@@]5(C)CC[C@H](O[C@@H]6O[C@H](CO[C@@H]7OC[C@H](O)[C@H](O)[C@H]7O)[C@@H](O)[C@H](O)[C@H]6NC(=O)/C=C/c6ccc(OCc7ccccc7)cc6)C(C)(C)[C@@H]5CC[C@]43C)[C@@H]2C1`, the half-maximal inhibitory concentration (IC50) was above 50 µM with MCF7; above 50 µM in experiment [1]; above 50 µM with HepG2; above 50 µM with HeLa; above 50 µM in the experiment with A549; 23.8 µM in experiment [2].

For the compound `COc1ccc(/C=C/C(=O)N[C@H]2[C@H](O[C@H]3CC[C@]4(C)[C@H]5CC=C6[C@@H]7CC(C)(C)CC[C@]7(C(=O)O)CC[C@@]6(C)[C@]5(C)CC[C@H]4C3(C)C)O[C@H](CO[C@@H]3OC[C@H](O)[C@H](O)[C@H]3O)[C@@H](O)[C@@H]2O)cc1OC`, the IC50 (with MCF7; in experiment [1]; in the experiment on HepG2; in the experiment on HeLa; with A549; in experiment [2]) was above 50 µM each time.

On to `CCOc1ccc(/C=C/C(=O)N[C@H]2[C@H](O[C@H]3CC[C@]4(C)[C@H]5CC=C6[C@@H]7CC(C)(C)CC[C@]7(C(=O)O)CC[C@@]6(C)[C@]5(C)CC[C@H]4C3(C)C)O[C@H](CO[C@@H]3OC[C@H](O)[C@H](O)[C@H]3O)[C@@H](O)[C@@H]2O)cc1`, for which the IC50 was above 50 µM with MCF7; above 50 µM in experiment [1]; above 50 µM with HepG2; above 50 µM in the experiment with HeLa; above 50 µM with A549; 13 µM in experiment [2].

Consider `CC(=O)N[C@H]1[C@H](O[C@H]2CC[C@]3(C)[C@H]4CC=C5[C@@H]6CC(C)(C)CC[C@]6(C(=O)O)CC[C@@]5(C)[C@]4(C)CC[C@H]3C2(C)C)O[C@H](CO[C@@H]2OC[C@H](O)[C@H](O)[C@H]2O)[C@@H](O)[C@@H]1O`, for which the half-maximal inhibitory concentration (IC50) in the experiment on MCF7 amounted to 9.34 µM; in experiment [1] it was 9.92 µM; with HepG2, 10.3 µM; with HeLa, 5.27 µM; with A549 it was 5.27 µM; in experiment [2], 16 µM.

Regarding `COc1ccc(OC)c(/C=C/C(=O)N[C@H]2[C@H](O[C@H]3CC[C@]4(C)[C@H]5CC=C6[C@@H]7CC(C)(C)CC[C@]7(C(=O)O)CC[C@@]6(C)[C@]5(C)CC[C@H]4C3(C)C)O[C@H](CO[C@@H]3OC[C@H](O)[C@H](O)[C@H]3O)[C@@H](O)[C@@H]2O)c1`, the half-maximal inhibitory concentration (IC50) (in the experiment with MCF7; in experiment [1]; in the experiment on HepG2; in the experiment with HeLa; in the experiment with A549; in experiment [2]) was above 50 µM in each case.
